Test results as given in patent US6825170B2, “6-O-acyl ketolide antibacterials” (Ortho-McNeil Pharmaceutical, Inc., priority 2001, dated 2004).
Converted amounts (≈) assume the structure as drawn.

Assays:
Test in all cases: MIC, microdilution broth method (NCCLS)
Assay type in all cases: cell-based
Details in all cases: 35° C., 16-20 hours
S. pneumoniae ATCC49619 = system: S. pneumoniae ATCC49619
Description: (§1) Minimal inhibitory concentration (MIC) has been an indicator of in vitro antibacterial activity widely used in the art. The in vitro antimicrobial activity of the compounds was determined by the microdilution broth method following the test method from the National Committee for Clinical Laboratory Standards (NCCLS). This method is described in the NCCLS Document M7-A4, Vol.17, No.2, “Methods for Dilution Antimicrobial Susceptibility Test for Bacteria that Grow Aerobically—Fourth Edition”, which is incorporated herein by reference.
(§2) In this method two-fold serial dilutions of drug in cation adjusted Mueller-Hinton broth are added to wells in microdilution trays. The test organisms are prepared by adjusting the turbidity of actively growing broth cultures so that the final concentration of test organism after it is added to the wells is approximately 5×10^4 CFU/well.
(§3) Following inoculation of the microdilution trays, the trays are incubated at 35° C. for 16-20 hours and then read. […] The amount of growth in the wells containing the test compound is compared with the amount of growth in the growth-control wells (no test compound) used in each tray. As set forth in Table 1, compounds of the present invention were tested against a variety of Gram positive and Gram negative pathogenic bacteria resulting in a range of activities depending on the organism tested.

E. faecalis ATCC29212 = system: E. faecalis ATCC29212
Description: as §1, §2, §3

H. influenzae ATCC49247 = system: H. influenzae ATCC49247
Description: as §1, §2, §3

S. aureus ATCC29213 = system: S. aureus ATCC29213
Description: as §1, §2, §3

CCC1OC(=O)C(C)C(=O)C(C)C(OC2OC(C)CC(N(C)C)C2O)C(C)(OC(=O)NOCc2ccc(-c3cnccn3)cc2)CC(C)C(=O)C(C)C2NC(=O)OC12C (stereo not shown) [Compound 601]
MIC (D: S. pneumoniae ATCC49619) (S. pneumoniae ATCC49619): 0.03 µg/mL (≈ 0.0363 µM)
MIC (C: E. faecalis ATCC29212) (E. faecalis ATCC29212): 0.12 µg/mL (≈ 0.145 µM)
MIC (E: H. influenzae ATCC49247) (H. influenzae ATCC49247): 2 µg/mL (≈ 2.42 µM)
MIC (B: S. aureus ATCC29213) (S. aureus ATCC29213): 0.25 µg/mL (≈ 0.303 µM)

CCC1OC(=O)C(C)C(=O)C(C)C(OC2OC(C)CC(N(C)C)C2O)C(C)(OC(=O)OCC=Cc2ccc(-c3cnccn3)s2)CC(C)C(=O)C(C)C2NC(=O)OC12C (stereo not shown) [Compound 65]
MIC (D: S. pneumoniae ATCC49619) (S. pneumoniae ATCC49619): 0.03 µg/mL (≈ 0.0356 µM)
MIC (C: E. faecalis ATCC29212) (E. faecalis ATCC29212): 0.12 µg/mL (≈ 0.142 µM)
MIC (E: H. influenzae ATCC49247) (H. influenzae ATCC49247): 1 µg/mL (≈ 1.19 µM)
MIC (B: S. aureus ATCC29213) (S. aureus ATCC29213): 0.25 µg/mL (≈ 0.297 µM)

CC[C@H]1OC(=O)[C@H](C)C(=O)[C@H](C)[C@@H](O[C@@H]2O[C@H](C)C[C@H](N(C)C)[C@H]2O)[C@](C)(OC(=O)NNS(=O)(=O)c2ccc(-n3cccn3)cc2)C[C@@H](C)C(=O)[C@H](C)[C@H]2NC(=O)O[C@@]21C [Compound 811]
MIC (D: S. pneumoniae ATCC49619) (S. pneumoniae ATCC49619): 0.06 µg/mL (≈ 0.0695 µM)
MIC (C: E. faecalis ATCC29212) (E. faecalis ATCC29212): 0.5 µg/mL (≈ 0.579 µM)
MIC (E: H. influenzae ATCC49247) (H. influenzae ATCC49247): 4 µg/mL (≈ 4.63 µM)
MIC (B: S. aureus ATCC29213) (S. aureus ATCC29213): 2 µg/mL (≈ 2.32 µM)

CCC1OC(=O)C(C)C(=O)C(C)C(OC2OC(C)CC(N(C)C)C2O)C(C)(OC(=O)OCC=Cc2ccc(-n3ccnn3)cc2)CC(C)C(=O)C(C)C2NC(=O)OC12C (stereo not shown) [Compound 24]
MIC (D: S. pneumoniae ATCC49619) (S. pneumoniae ATCC49619): ≦0.015 μg/mL
MIC (C: E. faecalis ATCC29212) (E. faecalis ATCC29212): 0.06 µg/mL (≈ 0.0726 µM)
MIC (E: H. influenzae ATCC49247) (H. influenzae ATCC49247): 1 µg/mL (≈ 1.21 µM)
MIC (B: S. aureus ATCC29213) (S. aureus ATCC29213): 0.12 µg/mL (≈ 0.145 µM)

CCC1OC(=O)C(C)C(=O)C(C)C(OC2OC(C)CC(N(C)C)C2O)C(C)(OC(=O)NOCCc2ccc(-c3cnccn3)cc2)CC(C)C(=O)C(C)C2NC(=O)OC12C (stereo not shown) [Compound 578]
MIC (D: S. pneumoniae ATCC49619) (S. pneumoniae ATCC49619): 0.12 µg/mL (≈ 0.143 µM)
MIC (C: E. faecalis ATCC29212) (E. faecalis ATCC29212): 0.25 µg/mL (≈ 0.298 µM)
MIC (B: S. aureus ATCC29213) (S. aureus ATCC29213): 0.5 µg/mL (≈ 0.595 µM)

CC[C@H]1OC(=O)[C@H](C)C(=O)[C@H](C)[C@@H](O[C@@H]2O[C@H](C)C[C@H](N(C)C)[C@H]2O)[C@](C)(OC(=O)NOC/C=C/c2cnc3ccccc3c2)C[C@@H](C)C(=O)[C@H](C)[C@H]2NC(=O)O[C@@]21C [Compound 620]
MIC (D: S. pneumoniae ATCC49619) (S. pneumoniae ATCC49619): 0.03 µg/mL (≈ 0.0364 µM)
MIC (C: E. faecalis ATCC29212) (E. faecalis ATCC29212): 0.12 µg/mL (≈ 0.145 µM)
MIC (B: S. aureus ATCC29213) (S. aureus ATCC29213): 0.5 µg/mL (≈ 0.606 µM)

CC[C@H]1OC(=O)[C@H](C)C(=O)[C@H](C)[C@@H](O[C@@H]2O[C@H](C)C[C@H](N(C)C)[C@H]2O)[C@](C)(OC(=O)NOC/C=C/c2ccc(-n3cccn3)cc2)C[C@@H](C)C(=O)[C@H](C)[C@H]2NC(=O)O[C@@]21C [Compound 619]
MIC (D: S. pneumoniae ATCC49619) (S. pneumoniae ATCC49619): 0.03 µg/mL (≈ 0.0357 µM)
MIC (C: E. faecalis ATCC29212) (E. faecalis ATCC29212): 0.12 µg/mL (≈ 0.143 µM)
MIC (B: S. aureus ATCC29213) (S. aureus ATCC29213): 0.25 µg/mL (≈ 0.298 µM)

CCC1OC(=O)C(C)C(=O)C(C)C(OC2OC(C)CC(N(C)C)C2O)C(C)(OC(=O)NOCC=Cc2ccc(-c3cnccn3)cc2)CC(C)C(=O)C(C)C2NC(=O)OC12C (stereo not shown) [Compound 606]
MIC (D: S. pneumoniae ATCC49619) (S. pneumoniae ATCC49619): 0.06 µg/mL (≈ 0.0704 µM)
MIC (C: E. faecalis ATCC29212) (E. faecalis ATCC29212): 0.12 µg/mL (≈ 0.141 µM)
MIC (B: S. aureus ATCC29213) (S. aureus ATCC29213): 0.25 µg/mL (≈ 0.293 µM)

CCC1OC(=O)C(C)C(=O)C(C)C(OC2OC(C)CC(N(C)C)C2O)C(C)(OC(=O)OCC=Cc2ccc3nccnc3c2)CC(C)C(=O)C(C)C2NC(=O)OC12C (stereo not shown) [Compound 44]
MIC (D: S. pneumoniae ATCC49619) (S. pneumoniae ATCC49619): ≦0.015 μg/mL
MIC (C: E. faecalis ATCC29212) (E. faecalis ATCC29212): 0.06 µg/mL (≈ 0.074 µM)
MIC (B: S. aureus ATCC29213) (S. aureus ATCC29213): 0.12 µg/mL (≈ 0.148 µM)

CCC1OC(=O)C(C)(F)C(=O)C(C)C(OC2OC(C)CC(N(C)C)C2O)C(C)(OC(=O)OCC=Cc2ccc(-c3ncccn3)cc2)CC(C)C(=O)C(C)C2NC(=O)OC12C (stereo not shown) [Compound 288]
MIC (D: S. pneumoniae ATCC49619) (S. pneumoniae ATCC49619): 0.06 µg/mL (≈ 0.0702 µM)
MIC (C: E. faecalis ATCC29212) (E. faecalis ATCC29212): 0.12 µg/mL (≈ 0.14 µM)
MIC (B: S. aureus ATCC29213) (S. aureus ATCC29213): 0.25 µg/mL (≈ 0.292 µM)
